The values that follow come from ChEMBL document CHEMBL1201862, “PubChem BioAssay data set” (2004).

Active and inactive are the calls of the source. Bounds are passed on as bounds.

The nature of assay [1]: enhancers of respiration in Yfh1-depleted yeast, dose response, Friedreich's ataxia, plus single-dose screen (AID 1465).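 Note: yeast depleted of Yfh1p frataxin homolog grown on glycerol needing respiration; WST-1 tetrazolium dye reduction as measure of cellular dehydrogenase metabolic activity.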 It is filed as functional.
In assay [2] the target is T1, Streptokinase A (Streptococcus pyogenes serotype M1, UniProt P10520).
T1 sequence (P10520 whole entry): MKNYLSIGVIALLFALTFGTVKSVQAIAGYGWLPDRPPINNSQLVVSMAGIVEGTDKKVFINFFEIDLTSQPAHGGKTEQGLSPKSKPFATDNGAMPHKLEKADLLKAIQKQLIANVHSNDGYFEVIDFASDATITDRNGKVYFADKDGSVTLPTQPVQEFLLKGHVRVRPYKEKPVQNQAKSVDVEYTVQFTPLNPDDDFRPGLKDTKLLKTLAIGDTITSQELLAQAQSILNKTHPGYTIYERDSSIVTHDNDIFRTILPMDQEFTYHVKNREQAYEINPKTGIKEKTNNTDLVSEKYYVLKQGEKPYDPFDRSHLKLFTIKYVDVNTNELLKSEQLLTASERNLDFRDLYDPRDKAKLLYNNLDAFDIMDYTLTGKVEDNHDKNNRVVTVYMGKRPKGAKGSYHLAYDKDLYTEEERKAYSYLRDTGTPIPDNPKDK
Put plainly: Absorbance Microorganism-Based Dose Response Follow up to Identify Inhibitors of Streptokinase Expression. [Related pubchem assays: 1677 (Project Summary), 1915, 1914, 1902 (Retest at Dose), 1900 (Counter Screen), 1662 (Primary HTS)]. Type of assay: functional, Streptococcus pyogenes M1 GAS. For orientation: A counterscreen serves to expose hits that act by an unwanted route or on another target.

In assay [3] the test system is Streptococcus. Put plainly: Streptococcus pyogenes growth inhibition counter-screen, dose response, counter-screen for streptokinase expression inhibitor project, luminescence, BacTiter-Glo, strain UMAA2166 (AID 2477). It is filed as functional, organism-based.
A short description of assay [4]: M. tuberculosis H37Rv growth inhibitors, H37Rv strain (AID 1626). Type of assay: functional.
In assay [5] the target is Troponin, cardiac muscle (Homo sapiens, UniProt P19429+P45379+P63316). Briefly: Fluorescence-based biochemical high throughput dose response assay for activators of the calcium sensitivity of cardiac Regulated Thin Filaments (RTF). [Related pubchem assays (depositor defined):AID493008, AID493018, AID504382, AID504383]. It is filed as protein-complex assay.
Assay [6] concerns the target T2, Short transient receptor potential channel 4 (Mus musculus, UniProt Q9QUQ5).
T2 sequence (Q9QUQ5 whole entry): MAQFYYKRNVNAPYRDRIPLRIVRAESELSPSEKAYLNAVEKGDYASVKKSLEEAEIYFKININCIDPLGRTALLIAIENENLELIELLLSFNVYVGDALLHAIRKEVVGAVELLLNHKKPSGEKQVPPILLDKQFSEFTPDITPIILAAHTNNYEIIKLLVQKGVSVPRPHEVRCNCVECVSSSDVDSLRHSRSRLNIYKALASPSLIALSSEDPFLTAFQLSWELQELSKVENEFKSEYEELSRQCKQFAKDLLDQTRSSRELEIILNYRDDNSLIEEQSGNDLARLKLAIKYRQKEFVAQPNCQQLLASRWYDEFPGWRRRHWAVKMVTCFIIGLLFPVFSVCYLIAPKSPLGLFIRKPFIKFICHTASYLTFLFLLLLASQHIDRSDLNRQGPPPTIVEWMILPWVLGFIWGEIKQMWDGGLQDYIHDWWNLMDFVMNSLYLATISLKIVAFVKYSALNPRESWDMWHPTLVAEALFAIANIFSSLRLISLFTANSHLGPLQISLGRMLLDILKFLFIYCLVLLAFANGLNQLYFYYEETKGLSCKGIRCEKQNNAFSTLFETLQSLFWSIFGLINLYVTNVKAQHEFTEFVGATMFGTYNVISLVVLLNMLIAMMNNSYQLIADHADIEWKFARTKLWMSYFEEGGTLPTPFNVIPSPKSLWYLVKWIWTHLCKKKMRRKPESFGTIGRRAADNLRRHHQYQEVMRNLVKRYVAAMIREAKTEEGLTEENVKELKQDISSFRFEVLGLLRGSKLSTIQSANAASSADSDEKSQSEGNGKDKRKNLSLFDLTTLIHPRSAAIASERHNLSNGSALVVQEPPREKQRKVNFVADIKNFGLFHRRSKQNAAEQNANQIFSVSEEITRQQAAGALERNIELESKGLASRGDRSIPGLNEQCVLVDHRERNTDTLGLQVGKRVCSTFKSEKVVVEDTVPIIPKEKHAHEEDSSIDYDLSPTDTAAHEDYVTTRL
Put plainly: mouse TRPC4 channel activators, dose response, cell-based, HEK293 TRPC4/mu-opioid, Fluo-4 calcium (AID 434937). It is filed as functional.

Assay [7] has as its target Sphingosine 1-phosphate receptor 2 (Homo sapiens, UniProt O95136). Put plainly: Dose Response Cell Based Assay for Agonists of the S1P2 Receptor of Purchased Analogues. [Related pubchem assays: 729, 843, 854, 736 ]. Type of assay: functional.
Assay [8] has as its target Peroxisome proliferator-activated receptor gamma/Nuclear receptor coactivator 2 (Homo sapiens, UniProt P37231). It is filed as functional.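 Note: agonist potency for raising coactivator recruitment to the receptor.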
The target of assay [9] is Peroxisome proliferator-activated receptor gamma/Nuclear receptor coactivator 1 (Homo sapiens, UniProt P37231). It is filed as functional.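 Note: agonist potency as compounds enhance coactivator SRC-1 recruitment to PPARgamma.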
Sequence of Peroxisome proliferator-activated receptor gamma/Nuclear receptor coactivator 1 (P37231 whole entry): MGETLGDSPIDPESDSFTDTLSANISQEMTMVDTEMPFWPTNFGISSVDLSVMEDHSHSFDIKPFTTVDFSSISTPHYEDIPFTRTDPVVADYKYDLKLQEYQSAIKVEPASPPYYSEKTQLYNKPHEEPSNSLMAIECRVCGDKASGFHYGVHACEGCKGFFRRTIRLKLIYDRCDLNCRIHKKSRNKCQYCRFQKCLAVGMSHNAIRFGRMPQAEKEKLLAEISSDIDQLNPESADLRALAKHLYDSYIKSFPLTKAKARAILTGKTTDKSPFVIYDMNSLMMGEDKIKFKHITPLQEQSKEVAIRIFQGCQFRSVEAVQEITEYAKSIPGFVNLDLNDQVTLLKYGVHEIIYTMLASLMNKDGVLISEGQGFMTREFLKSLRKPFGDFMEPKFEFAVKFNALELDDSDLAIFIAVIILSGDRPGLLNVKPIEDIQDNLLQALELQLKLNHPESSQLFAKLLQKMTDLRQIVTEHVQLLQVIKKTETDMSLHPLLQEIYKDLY
Sequence of Peroxisome proliferator-activated receptor gamma/Nuclear receptor coactivator 1 (Q15788 whole entry, further chain): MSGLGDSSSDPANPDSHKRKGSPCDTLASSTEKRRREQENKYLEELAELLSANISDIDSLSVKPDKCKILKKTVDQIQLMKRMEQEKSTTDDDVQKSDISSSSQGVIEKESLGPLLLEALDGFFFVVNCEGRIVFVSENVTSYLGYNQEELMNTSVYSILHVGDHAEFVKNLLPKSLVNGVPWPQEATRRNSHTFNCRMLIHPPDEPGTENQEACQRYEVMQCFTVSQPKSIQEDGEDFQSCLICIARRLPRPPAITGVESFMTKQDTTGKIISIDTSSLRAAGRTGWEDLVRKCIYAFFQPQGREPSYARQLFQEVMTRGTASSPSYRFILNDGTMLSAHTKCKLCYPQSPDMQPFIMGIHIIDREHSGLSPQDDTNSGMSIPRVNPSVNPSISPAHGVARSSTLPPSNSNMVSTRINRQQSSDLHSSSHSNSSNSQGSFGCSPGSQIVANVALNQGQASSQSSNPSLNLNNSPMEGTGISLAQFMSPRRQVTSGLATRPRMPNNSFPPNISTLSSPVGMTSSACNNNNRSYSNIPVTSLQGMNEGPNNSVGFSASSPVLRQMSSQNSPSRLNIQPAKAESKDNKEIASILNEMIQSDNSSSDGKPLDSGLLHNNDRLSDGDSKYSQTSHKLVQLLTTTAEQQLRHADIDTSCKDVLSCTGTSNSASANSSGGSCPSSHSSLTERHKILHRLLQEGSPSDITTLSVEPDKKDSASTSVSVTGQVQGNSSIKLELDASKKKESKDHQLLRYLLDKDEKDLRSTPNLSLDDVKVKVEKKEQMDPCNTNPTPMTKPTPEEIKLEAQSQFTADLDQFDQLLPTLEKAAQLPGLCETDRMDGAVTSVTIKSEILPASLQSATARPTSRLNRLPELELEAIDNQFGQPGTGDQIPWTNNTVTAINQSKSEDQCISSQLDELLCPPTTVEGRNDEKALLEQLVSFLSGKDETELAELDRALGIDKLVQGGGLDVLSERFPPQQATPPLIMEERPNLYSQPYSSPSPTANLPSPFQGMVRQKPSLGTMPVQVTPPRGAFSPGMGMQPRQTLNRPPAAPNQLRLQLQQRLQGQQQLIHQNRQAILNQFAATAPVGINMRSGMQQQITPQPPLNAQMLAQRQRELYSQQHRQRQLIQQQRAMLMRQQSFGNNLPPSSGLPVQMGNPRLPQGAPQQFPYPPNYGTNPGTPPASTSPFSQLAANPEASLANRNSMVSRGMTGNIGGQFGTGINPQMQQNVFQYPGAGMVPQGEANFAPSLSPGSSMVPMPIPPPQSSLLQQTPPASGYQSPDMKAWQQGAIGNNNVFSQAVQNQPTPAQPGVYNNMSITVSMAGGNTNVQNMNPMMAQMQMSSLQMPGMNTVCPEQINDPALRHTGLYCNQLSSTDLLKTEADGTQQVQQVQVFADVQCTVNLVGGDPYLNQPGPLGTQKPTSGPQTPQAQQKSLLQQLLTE
Assay [10] deals with Peroxisome proliferator-activated receptor gamma/Nuclear receptor coactivator 3 (Homo sapiens, UniProt P37231). It is filed as functional.
Sequence of Peroxisome proliferator-activated receptor gamma/Nuclear receptor coactivator 3 (P37231 whole entry): as the sequence (P37231 whole entry) above
Sequence of Peroxisome proliferator-activated receptor gamma/Nuclear receptor coactivator 3 (Q9Y6Q9 whole entry, further chain): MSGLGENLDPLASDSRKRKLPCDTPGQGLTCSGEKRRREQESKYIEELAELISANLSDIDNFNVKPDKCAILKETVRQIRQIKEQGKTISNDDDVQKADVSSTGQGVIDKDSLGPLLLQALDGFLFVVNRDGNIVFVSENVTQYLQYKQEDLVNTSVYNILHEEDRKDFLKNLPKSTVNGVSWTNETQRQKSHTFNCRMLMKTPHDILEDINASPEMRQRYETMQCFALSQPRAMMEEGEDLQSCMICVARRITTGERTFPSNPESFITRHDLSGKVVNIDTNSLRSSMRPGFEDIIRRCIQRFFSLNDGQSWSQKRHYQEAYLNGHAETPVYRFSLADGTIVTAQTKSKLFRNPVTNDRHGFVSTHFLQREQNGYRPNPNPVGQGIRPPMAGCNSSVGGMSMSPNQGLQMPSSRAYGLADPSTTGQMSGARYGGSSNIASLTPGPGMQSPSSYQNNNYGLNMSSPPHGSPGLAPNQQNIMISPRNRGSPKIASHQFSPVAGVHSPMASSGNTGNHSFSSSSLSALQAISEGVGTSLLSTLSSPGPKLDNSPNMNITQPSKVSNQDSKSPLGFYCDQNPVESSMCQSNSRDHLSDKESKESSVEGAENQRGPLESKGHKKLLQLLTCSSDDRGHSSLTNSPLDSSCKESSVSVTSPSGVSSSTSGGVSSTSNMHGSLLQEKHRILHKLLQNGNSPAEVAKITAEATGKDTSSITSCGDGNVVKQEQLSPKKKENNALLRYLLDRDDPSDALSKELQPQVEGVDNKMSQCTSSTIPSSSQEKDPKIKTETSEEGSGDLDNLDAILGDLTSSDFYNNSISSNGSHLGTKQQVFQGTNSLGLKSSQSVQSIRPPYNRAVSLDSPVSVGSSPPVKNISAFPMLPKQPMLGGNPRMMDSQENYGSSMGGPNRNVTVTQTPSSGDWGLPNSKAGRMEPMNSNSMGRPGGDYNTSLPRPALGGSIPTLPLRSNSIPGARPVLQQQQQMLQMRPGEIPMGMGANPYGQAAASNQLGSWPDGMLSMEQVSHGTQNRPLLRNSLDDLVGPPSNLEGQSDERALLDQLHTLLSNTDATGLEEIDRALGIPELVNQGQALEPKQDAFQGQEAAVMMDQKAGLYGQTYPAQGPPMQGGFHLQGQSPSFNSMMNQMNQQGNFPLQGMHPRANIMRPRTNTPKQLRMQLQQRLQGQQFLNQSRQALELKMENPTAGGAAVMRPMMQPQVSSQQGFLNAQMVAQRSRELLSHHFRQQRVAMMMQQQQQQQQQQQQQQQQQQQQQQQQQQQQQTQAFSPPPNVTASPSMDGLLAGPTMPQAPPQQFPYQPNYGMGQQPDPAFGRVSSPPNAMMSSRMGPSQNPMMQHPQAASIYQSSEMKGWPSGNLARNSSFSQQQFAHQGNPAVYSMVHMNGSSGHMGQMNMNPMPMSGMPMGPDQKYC
The target of assay [11] is Mothers against decapentaplegic homolog 3 (Homo sapiens, UniProt P84022). Briefly: SMAD3 transcription factor inhibitors, dose response (AID 715). Type of assay: functional.
The target of assay [12] is Epstein-Barr nuclear antigen 1 (Epstein-Barr virus (strain B95-8) (HHV-4) (Human herpesvirus 4), UniProt P03211). Put plainly: EBNA-1 inhibitors, dose response, biochemical, fluorescence polarization, 1536-well (AID 2381).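 Note: fluorescence polarization of a Cy5 DNA probe bound by EBNA-1 protein.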 The arrangement: species or system human gammaherpesvirus 4. On the technique in general: Fluorescence polarisation rises when a labelled molecule tumbles more slowly, as on binding a larger partner.

Assay [13] concerns the target Lytic switch protein BZLF1 (Epstein-Barr virus (strain B95-8) (HHV-4) (Human herpesvirus 4), UniProt P03206). Briefly: EBV ZTA inhibitors, dose response, counter-screen for EBNA-1 inhibitor project, biochemical, fluorescence polarization, Epstein-Barr virus, 1536-well (AID 2377).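 Note: fluorescence polarization of Cy5-labelled ZRE DNA probe bound by purified Zta.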 Further details: species or system human gammaherpesvirus 4.
Assay [14] concerns the target NS3 (Hepatitis C virus, UniProt A3EZJ3). Briefly: PubChem AID 2173. Further details: species or system Hepacivirus hominis.

Sequence of NS3 (A3EZJ3 whole entry): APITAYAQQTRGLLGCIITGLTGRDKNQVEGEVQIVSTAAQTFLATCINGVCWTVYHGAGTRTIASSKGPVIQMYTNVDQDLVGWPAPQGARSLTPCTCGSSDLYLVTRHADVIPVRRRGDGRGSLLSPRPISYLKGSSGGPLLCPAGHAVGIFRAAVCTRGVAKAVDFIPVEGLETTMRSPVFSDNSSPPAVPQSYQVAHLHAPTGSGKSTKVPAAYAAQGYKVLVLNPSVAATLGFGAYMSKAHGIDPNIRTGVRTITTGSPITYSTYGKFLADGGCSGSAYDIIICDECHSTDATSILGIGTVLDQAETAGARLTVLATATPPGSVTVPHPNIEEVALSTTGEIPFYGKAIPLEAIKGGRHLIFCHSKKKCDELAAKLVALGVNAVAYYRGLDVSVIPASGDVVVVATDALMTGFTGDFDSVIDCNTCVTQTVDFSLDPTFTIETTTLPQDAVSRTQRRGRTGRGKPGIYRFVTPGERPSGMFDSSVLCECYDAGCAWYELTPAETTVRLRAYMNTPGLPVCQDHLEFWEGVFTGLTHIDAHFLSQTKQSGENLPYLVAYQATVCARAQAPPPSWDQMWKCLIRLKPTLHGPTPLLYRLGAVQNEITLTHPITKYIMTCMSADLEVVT
Sequence of Lytic switch protein BZLF1 (P03206 whole entry): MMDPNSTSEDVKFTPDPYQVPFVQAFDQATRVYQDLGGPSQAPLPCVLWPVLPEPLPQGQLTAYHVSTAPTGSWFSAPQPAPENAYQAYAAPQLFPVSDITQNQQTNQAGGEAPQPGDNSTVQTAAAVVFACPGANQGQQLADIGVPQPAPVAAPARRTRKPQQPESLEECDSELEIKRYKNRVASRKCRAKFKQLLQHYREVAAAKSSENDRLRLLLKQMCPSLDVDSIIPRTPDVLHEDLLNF

In the case of `Cn1cccc1/C=C1/SC(=S)N(CC(=O)O)C1=O`, in [1], the EC50 was > 100 µM (active).
`COc1ccc(Sc2ccc(NC(=O)c3cccc(Cl)c3)cc2C#N)cc1`: the EC50 in assay [2] was 8.99 µM (active); in assay [3], > 500 µM (not active).
With `CC(C)(C)C(=O)/C=c1\s/c(=C\c2ccc(-c3ccc([N+](=O)[O-])cc3)o2)c(=O)n1CC(=O)NC(N)=O`, the IC50 in assay [4] is > 100 µM (active). Further, the EC50 in assay [5] was 0.565 µM (active); in assay [6], 5.31 µM (active).
For `Cc1cc(C(=O)CSc2nnnn2C2CC2)c(C)n1Cc1ccccc1`, the EC50 in assay [7] is > 30 µM (not active).
Turning to `CCCCOC(=O)CSc1nc(N)c(C#N)c(-c2ccc(OCC)cc2)c1C#N`, the EC50 was 9.42 µM (active) in [8], 11.2 µM (not active) in assay [9] and > 79.4 µM (not active) in [10]. For the same compound, in assay [11], the IC50 was 11 µM (active).
`COc1cc(NC(=O)c2ccc(Br)cc2)c(OC)cc1NC(=O)c1ccccc1`: the IC50 is listed as 15.4 µM (not active) in assay [12] and > 111 µM (not active) in assay [13].
Regarding `Cc1cc(O)c(C(=O)/C=C/c2c(F)c(F)c(F)c(F)c2F)c(=O)o1`, the IC50 in [14] was 8.85 µM (active).

For orientation: EC50 means the concentration giving half of the maximal effect. One may read the IC50 as the concentration needed to halve the response being measured.
